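Exposure lasted 48 hours, with cells grown in 96-well plates and compounds tested at five concentrations. The concentration for 50% growth inhibition is given as GI50.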 Activity calls are given as the source filed them. Rule as the data show it: active = GI50 up to about 1.1 µM and inactive = higher. Non-standard residues stand in square brackets, D forms with d. Residues, ends and D or L forms follow the SMILES beside them. ΔPro = O=C(O)[CH]1C=CCN1
Experiments:
Experiment in all cases: NCI anticancer screen, dose series, 48 h
[1] = tested on: PC-3
[2] = tested on: RXF 393
[3] = tested on: SNB-75
[4] = tested on: OVCAR-5
[5] = tested on: SN12C
[6] = tested on: UO-31
[7] = tested on: IGROV-1
[8] = tested on: NCI-H522
[9] = tested on: UACC-257
[10] = tested on: 786-0
[11] = tested on: SK-MEL-2
[12] = tested on: CCRF-CEM
[13] = tested on: NCI/ADR-RES
[14] = tested on: RPMI-8226
[15] = tested on: SK-OV-3
[16] = tested on: NCI-H226
[17] = tested on: HL-60
[18] = tested on: MOLT-4
[19] = tested on: Hs-578T
[20] = tested on: SNB-19

SMILES | GI50 [1] | GI50 [2] | GI50 [3] | GI50 [4] | GI50 [5] | GI50 [6] | GI50 [7] | GI50 [8] | GI50 [9] | GI50 [10] | GI50 [11] | GI50 [12] | GI50 [13] | GI50 [14] | GI50 [15] | GI50 [16] | GI50 [17] | GI50 [18] | GI50 [19] | GI50 [20]
COc1ccc(OC)c(CSc2ccc(OC)c(OC)c2)c1 | > 79.8 µM (inactive) | > 100 µM (inactive) | 57.1 µM (inactive) | > 100 µM (inactive) | > 100 µM (inactive) | 55.3 µM (inactive) | 99.1 µM (inactive) | > 90.2 µM (inactive) | > 83.4 µM (inactive) | > 100 µM (inactive) | 49.9 µM (inactive) | > 100 µM (inactive) | > 70.8 µM (inactive) | > 84.7 µM (inactive) | > 100 µM (inactive) | > 71.4 µM (inactive) | > 50.5 µM (inactive) | 43.2 µM (inactive) | > 100 µM (inactive) | > 100 µM (inactive)
C=CCN(C(=O)CNC(=O)C(F)(F)F)c1cc(OCc2ccccc2)c2c(c1)c(C)cn2S(=O)(=O)c1ccccc1 | 5.96 µM (inactive) | 5.51 µM (inactive) | 4.8 µM (inactive) | > 100 µM (inactive) | > 100 µM (inactive) | 2.9 µM (inactive) | 12.1 µM (inactive) | 6.19 µM (inactive) | > 27.5 µM (inactive) | > 100 µM (inactive) | > 28.5 µM (inactive) | 0.139 µM (active) | > 100 µM (inactive) | 4.73 µM (inactive) | > 100 µM (inactive) | > 34.8 µM (inactive) | < 0.01 µM (active) | 4.16 µM (inactive) | > 100 µM (inactive) | > 100 µM (inactive)
COc1c(OC(C)C)c(OC(C)C)c2oc(=O)n3c2c1C(c1ccccc1-n1c(C)ccc1C)C=C3 (stereo not given) | 14.2 µM (inactive) | 22 µM (inactive) | 41.8 µM (inactive) | > 100 µM (inactive) | 71.9 µM (inactive) | 36.1 µM (inactive) | 39.9 µM (inactive) | 26.7 µM (inactive) | 45 µM (inactive) | 80.7 µM (inactive) | 95.9 µM (inactive) | 71.9 µM (inactive) | 33.6 µM (inactive) | 64.6 µM (inactive) | > 100 µM (inactive) | 17.1 µM (inactive) | > 100 µM (inactive) | 42.5 µM (inactive) | 18.5 µM (inactive) | > 100 µM (inactive)
COc1ccc2cc(/C=N\NC(=O)Nc3ccc([N+](=O)[O-])cc3)ccc2c1 | 11.8 µM (inactive) | 11.2 µM (inactive) | 13.2 µM (inactive) | 18.5 µM (inactive) | 12.4 µM (inactive) | 13.6 µM (inactive) | 13.8 µM (inactive) | 13.5 µM (inactive) | 14.6 µM (inactive) | 8.59 µM (inactive) | 13.3 µM (inactive) | > 10 µM (inactive) | 13.6 µM (inactive) | 13.8 µM (inactive) | 11.9 µM (inactive) | > 10 µM (inactive) | 11 µM (inactive) | 16.5 µM (inactive) | 17.5 µM (inactive) | 13.2 µM (inactive)
COC(=O)NC(Nc1ccc(Cl)cc1Cl)(C(F)(F)F)C(F)(F)F | 15.1 µM (inactive) | > 100 µM (inactive) | > 100 µM (inactive) | > 100 µM (inactive) | 80.4 µM (inactive) | 18 µM (inactive) | 61.7 µM (inactive) | 37.1 µM (inactive) | > 100 µM (inactive) | > 100 µM (inactive) | > 100 µM (inactive) | 28.5 µM (inactive) | 86.5 µM (inactive) | 31.7 µM (inactive) | 73.6 µM (inactive) | > 100 µM (inactive) | 29.3 µM (inactive) | 37.8 µM (inactive) | > 100 µM (inactive) | > 100 µM (inactive)
Nc1nc(=O)c2cc(NCc3ccc(C(=O)NC(CCC(=O)O)C(=O)O)cc3)ccc2[nH]1 (stereo not given) | > 100 µM (inactive) | > 100 µM (inactive) | > 100 µM (inactive) | > 100 µM (inactive) | 85.5 µM (inactive) | 15.1 µM (inactive) | > 100 µM (inactive) | > 100 µM (inactive) | > 100 µM (inactive) | > 100 µM (inactive) | > 100 µM (inactive) | > 100 µM (inactive) | > 100 µM (inactive) | > 100 µM (inactive) | > 100 µM (inactive) | > 100 µM (inactive) | 21.4 µM (inactive) | > 100 µM (inactive) | > 100 µM (inactive) | > 100 µM (inactive)
O=C(O)C1C=CCN1C(=O)C1C=CCN1C(=O)C1C=CCN1 (stereo not given) (H-[ΔPro]-[ΔPro]-[ΔPro]-OH; configuration not given here) | > 100 µM (inactive) | 4.21 µM (inactive) | > 100 µM (inactive) | > 100 µM (inactive) | > 100 µM (inactive) | > 100 µM (inactive) | > 100 µM (inactive) | > 100 µM (inactive) | > 100 µM (inactive) | > 100 µM (inactive) | > 100 µM (inactive) | > 100 µM (inactive) | > 100 µM (inactive) | > 100 µM (inactive) | > 100 µM (inactive) | 33.5 µM (inactive) | > 100 µM (inactive) | > 100 µM (inactive) | > 100 µM (inactive) | > 100 µM (inactive)
